In patent US12578331B2, “Monolayer of PBMCs or bone-marrow cells and uses thereof” (Mobius Biotechnology GmbH, priority 2014, dated 2026):

What was measured:
CD34+ or pSTAT5+ cells = assay: Personalized chemotherapy screen in PBMC monolayer of patients with myeloproliferative neoplasm / primary myelofibrosis: viability of CD34+ or pSTAT5+ cells; assay type: cell-based, human
Procedure: Method: PBMCs were cultured, fixed and stained as to protocol outlined in the above examples. 384-well plates were imaged using automated confocal microscope in 4-separate channels. We stained CD34-APC, pSTAT5-PE, GFP viability maker, and a DNA binding nuclear stain. Patient material was cultured on drugs for 18 hours before the addition of the viability marker. These images contained both clonal blasts (almost all CD34+ cells that are present in the peripheral blood,) activated cells (pSTAT5+ cells,) as well as inherently healthy cells from the same donor. […] PBMCs from peripheral blood of a patient diagnosed with primary myelofibrosis were purified over a ficol destiny gradient as described above following manufacture directions. The cells were plated as to the protocol in this application in 384-well black plastic imaging plates (corning) containing 350 FDA approved drugs in DMSO at 10 uM. The cells were plated at 20.000 cell/well in 50 ul of RPMI supplemented with 5% FCS 0.1% Pen/strep. The cells were incubated overnight and a viability dye was added (fixable live/dead green, Invitrogen following manufacture directions). The cells were fixed and permeablized in PBS containing 2% formaldehyde with 0.1% Tween-x114 for 10 minute at room temperature. The solution was then replaced with PBS containing antibody against CD34 and pSTAT5 (BD biosciences) for 1 hour. The solution was then replaced with PBS containing DAPI at manufacture recommended concentration. The plates were imaged at 10× on an Operetta (PE) automated confocal microscope in four channels using band-pass filter light separation (DAPI, GFP, PE, APC). Using an image analysis pipeline, the sensitivity of the cancer cells (CD34 and pSTAT5 positive) to each drug was compared to the sensitivity on the healthy cells (NOT CD34 and pSTAT5 positive). All results were normalized to the control, DMSO alone.

[1] = test system: primary myelofibrosis (PMF)-patients; assay: Clinical treatment of primary myelofibrosis patients already on Ruxolitinib with added Azacitidine; assay type: in vivo, human
Procedure: PBMCs from peripheral blood of a patient diagnosed with primary myelofibrosis were purified over a ficol destiny gradient as described above following manufacture directions. The cells were plated as to the protocol in this application in 384-well black plastic imaging plates (corning) containing 350 FDA approved drugs in DMSO at 10 uM. The cells were plated at 20.000 cell/well in 50 ul of RPMI supplemented with 5% FCS 0.1% Pen/strep. The cells were incubated overnight and a viability dye was added (fixable live/dead green, Invitrogen following manufacture directions). The cells were fixed and permeablized in PBS containing 2% formaldehyde with 0.1% Tween-x114 for 10 minute at room temperature. The solution was then replaced with PBS containing antibody against CD34 and pSTAT5 (BD biosciences) for 1 hour. The solution was then replaced with PBS containing DAPI at manufacture recommended concentration. The plates were imaged at 10× on an Operetta (PE) automated confocal microscope in four channels using band-pass filter light separation (DAPI, GFP, PE, APC). Using an image analysis pipeline, the sensitivity of the cancer cells (CD34 and pSTAT5 positive) to each drug was compared to the sensitivity on the healthy cells (NOT CD34 and pSTAT5 positive). All results were normalized to the control, DMSO alone. […]

## Nc1ncn([C@@H]2O[C@H](CO)[C@@H](O)[C@H]2O)c(=O)n1 [Azacitidine]
CD34+ or pSTAT5+ cells; MPN patient PBMCs, approximately 350 compounds, 18 hours on drugs, FIG. 6
  viability of cells stained for CD34 or pSTAT5: decreased the viability of cells expressing the biomarkers
CD34+ or pSTAT5+ cells; same patient, FIG. 7
  titration: viability of CD34+ cells compared to healthy cells and to DMSO: concentration dependent effects were seen
CD34+ or pSTAT5+ cells; two patients with early PMF or PMF, both treated with Ruxolitinib at the time of Pharmacoscopy, FIG. 10
  rank among compounds reducing percentage of viable cells expressing CD34 or pSTAT5: Top drug or highly enriched drug
[1]; patient undergoing treatment using Ruxolitinib, Azacitidine additionally used, FIG. 12D
  number of diseased cells in patient: significantly reduced the number of diseased cells
[1]; two PMF patients already on Ruxolitinib (Jakavi) treated with Azacitidine
  clinical response of patients: responding well
